# Measurements published in patent US8754047B2, “Peptide compositions and methods of use” (The Research Foundation for the State University of New York, priority 2008, dated 2014).
# Entries after “also recorded” stand apart in the source; their conditions may differ. Positions of bridges follow the written chain, without caps; N, C: chain ends. Residues, ends and D or L forms follow the SMILES beside them.
# Assays:
# thioredoxin 1 = biological target: T1, thioredoxin 1 (Homo sapiens, UniProt P10599); experiment: Thioredoxin 1 redox state, native PAGE immunoblot in SW480 cells; assay type: cell-based; conditions: YJB01 20 μM and 100 μM, YJB05 100 μM
# T1 construct: endogenous in cells; host or cells: SW480 human colon cancer cells
# T1 sequence (P10599 1-105): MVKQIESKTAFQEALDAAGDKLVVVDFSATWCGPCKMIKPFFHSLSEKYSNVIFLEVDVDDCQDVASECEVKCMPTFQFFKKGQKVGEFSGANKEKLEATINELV
# Protocol: (§1) SW480 human colon cancer cells were grown following the instructions of American Type Culture Collection (ATCC, Monassas, Va.). Cells were treated with either no peptide, with YBJ01 (at 20 μM and 100 μM), or with YBJ05 (at 100 μM). 10^6 cells were lysed in 6 mol/L guanidinium chloride, 50 mmol/L Tris/HCL (pH 8.3), 3 mmol/L EDTA, and 0.5% Triton-X-100 containing 50 mmol/L iodoacetic acid. After 30 min at 37° C., the excess idoacetic acid was removed using Microspin G-25 columns (GE Healthcare Life Sciences). Oxidized and reduced thioredxoin was separated by native PAGE. The gel was electroblotted onto a nitrocellulose membrane and probed with thioredoxin antibodies, followed by HRP-conjugated secondary antibody. Bands corresponding to thioredoxin were visualized by ECL.
# as §1, with “10^6 cells from each sample were lysed” for “10^6 cells were lysed”, “native PAGE. […]” for “native PAGE. The gel was electroblotted onto a nitrocellulose membrane and probed with thioredoxin antibodies, followed by HRP-conjugated secondary antibody. Bands corresponding to thioredoxin were visualized by ECL.”
# [1] = test system: SW480 human colon cancer cells; experiment: Annexin V-FITC flow cytometry for apoptotic cells, SW480; assay type: cell-based; conditions: 24 hrs, 0 μM to 200 μM
# Protocol: (§2) SW480 human colon cancer cells and MCF7 breast cancer cells were grown following the instructions of American Type Culture Collection (ATCC, Monassas, Va.). The cells were treated with the test peptides (YJB01, YJB05, or YJB06) for 24 hrs at concentrations ranging from 0 μM, to 200 μM. After treatment, cells were trypsinized and stained with Annexin V-FITC (100× dilution) for 15 minutes. Annexin V-FITC fluorescence intensities were analyzed by FACSCaliber (BD Bioscience) following standard protocols. Annexin V (+) cells are apoptotic cells.
# When cells undergo apoptosis, the inner membrane phospholipid, phosphotidylserine (PS), flips to the outer membrane and can be recognized by the […]. The green FITC fluorescence can be determined by flow cytometry and thus Annexin V (+) cells are apoptotic cells.
# as §2, with “In this study, SW480” for “SW480”, “human” for “human colon”, “treatment” for “treatment,”, “protocols.” for “protocols. Annexin V (+) cells are apoptotic cells.”
compound,measurement,setting,value
CC[C@H](C)[C@H](NC(=O)[C@H](CCCCN)NC(=O)[C@@H](NC(=O)[C@H](CCC(N)=O)NC(=O)[C@H](CCCNC(=N)N)NC(=O)[C@@H]1CCCN1C(=O)[C@H](CCCCN)NC(=O)[C@@H]1CSSC[C@H](NC(=O)[C@H](Cc2c[nH]c3ccccc23)NC(=O)[C@@H](NC(=O)[C@H](C)N)[C@@H](C)O)C(=O)NCC(=O)N2CCC[C@H]2C(=O)N1)[C@@H](C)CC)C(=O)N[C@@H](Cc1c[nH]c2ccccc12)C(=O)N[C@@H](Cc1ccccc1)C(=O)N[C@@H](CCC(N)=O)C(=O)N[C@@H](CC(N)=O)C(=O)N[C@@H](CCCNC(=N)N)C(=O)N[C@@H](CCCNC(=N)N)C(=O)N[C@@H](CCSC)C(=O)N[C@@H](CCCCN)C(=O)N[C@@H](Cc1c[nH]c2ccccc12)C(=O)N[C@@H](CCCCN)C(=O)N[C@@H](CCCCN)C(=O)O [YJB01] (H-ATWCGPCKPRQIKIWFQNRRMKWKK-OH; disulfide 4-7; N-terminus and C-terminus assumed),induction of the oxidized form of thioredoxin 1,thioredoxin 1,induces the oxidized form of thioredoxin 1; also recorded: capable of inducing oxidation
same,"apoptosis, Annexin V (+) cells, SW480",[1],cell killing effect
